Reference: patent US20130045948A1, “AZOCYCLIC INHIBITORS OF FATTY ACID AMIDE HYDROLASE” (E I DU PONT DE NEMOURS AND COMPANY, priority 2009, published 2013)
pIC50: −log10 of the molar value.

Assays:
[1] = molecular target: T1, recombinant human FAAH (MBP-ΔTM-FAAH) (Homo sapiens, UniProt O00519); experiment: FAAH assay, fluorogenic substrate D-AMC; type: biochemical; details: D-AMC 5 μM, pH 8.0, 37° C.
T1 construct: The region of the gene corresponding to amino acids 34 to 579 was cloned into pMAL-c4x; made in house; host or cells: E. coli T7 Express
T1 sequence (O00519 34-579): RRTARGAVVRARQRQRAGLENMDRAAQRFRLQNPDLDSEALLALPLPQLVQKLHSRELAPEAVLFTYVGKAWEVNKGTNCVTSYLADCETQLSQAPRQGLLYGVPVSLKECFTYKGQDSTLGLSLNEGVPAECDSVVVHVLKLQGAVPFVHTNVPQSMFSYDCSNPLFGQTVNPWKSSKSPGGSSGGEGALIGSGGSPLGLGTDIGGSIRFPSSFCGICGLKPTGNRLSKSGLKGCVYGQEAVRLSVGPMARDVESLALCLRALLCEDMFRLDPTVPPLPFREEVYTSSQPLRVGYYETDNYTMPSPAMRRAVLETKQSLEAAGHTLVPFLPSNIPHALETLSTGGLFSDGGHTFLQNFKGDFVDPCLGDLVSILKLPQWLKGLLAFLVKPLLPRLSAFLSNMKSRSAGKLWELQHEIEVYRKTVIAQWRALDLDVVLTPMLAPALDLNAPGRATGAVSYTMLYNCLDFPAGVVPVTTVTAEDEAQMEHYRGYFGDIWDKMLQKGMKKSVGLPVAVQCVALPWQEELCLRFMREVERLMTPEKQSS
Experimental: E. coli T7 Express cells, containing the FAAH constructs, were used for expression of protein by induction with IPTG (isopropyl-β-D-thiogalactopyranoside) (100 μM) overnight at room temperature in Lennox Broth with 0.2% glucose. After harvest, the cells were resuspended in 20 mM Hepes buffer (pH 7.4) containing 200 mM NaCl, 2 mM DTT (dithiothreitol). The cell suspension was lysed by sonication, and the cell debris removed by centrifugation. […] The enzyme was eluted using 15 mM maltose as per manufacturer's (New England BioLabs, Inc.) instruction. Fractions containing FAAH were concentrated and further purified using Sephacryl™ 5100 (HIPrep™ 26/60, GE Healthcare, Inc.) chromatography. […]
FAAH assay—Enzyme activity was measured using the fluorogenic substrate, decanoyl 7-amino-4-methylcoumarin (D-AMC) as described by Kage, K. L. et al. J. of Neuroscience Methods 2007, 161, 47-54. […] Reactions were carried out in black 96-well microplates (Costar, Inc) using a SpectraMax Gemini™ (Molecular Devices, Inc.) fluorescence plate reader in a reaction volume of 200 μL per well at 37° C. Reaction rates were monitored at an emission wavelength of 430 nm using an excitation wavelength of 351 nm over 30 to 40 minutes. Experimental compounds were initially evaluated at a single concentration of 2 μM.

female Cr1:CD1(ICR) mice = experiment: Tail immersion assay in mice (analgesic potential, in combination with anandamide); details: for % of the treated animals exhibiting the maximum measured response time of 10 sec / analgesic effects at the rate tested (conclusion): 10 mg/kg i.p. plus anandamide 50 mg/kg; for % MPE (percent of the maximum possible effect (test-baseline)/(10-baseline)) / Test Time / Baseline Time: mean; for Baseline Time: prior to administration of compounds, tail in water 52+/−1° C.
Experimental: Test substances were injected once by intraperitoneal (i.p.) route to female Cr1:CD1(ICR) mice. The tail immersion assay was conducted prior to administration of compounds to establish baseline values and again after administration of compounds.
Analgesia was evaluated in female mice by immersing approximately 3.5 cm of each tail into water that was maintained at 52+/−1° C. for a maximum of 10 seconds (sec). The length of time until the animal removed its tail from the water or made a significant tail movement was measured. If the response time was less than 5 sec, a second trial was conducted.
Based on the results of the preliminary study, the time interval between administration of the test substances and anandamide was established as 40 minutes. In addition, the time interval between administration of anandamide and conducting the tail immersion assay was established to be 40 minutes.
The formulations were made on the day of dosing and administered once by intraperitoneal route.

[2] = cited from earlier work
[3] = 10 mg/kg i.p., anandamide 50 mg/kg i.p. 40 minutes later, assay 40 minutes after anandamide
[4] = 10 mg/kg i.p., anandamide 50 mg/kg i.p. 40 minutes later, assay 40 minutes after anandamide, maximum 10 sec
[5] = anandamide 50 mg/kg i.p. alone (negative control), assay 40 minutes after

Row | Compound | pIC50 [1] | % of the treated animals exhibiting the maximum measured response time of 10 sec (female Cr1:CD1(ICR) mice) [%] | analgesic effects at the rate tested (conclusion) (female Cr1:CD1(ICR) mice) | % MPE (percent of the maximum possible effect (test-baseline)/(10-baseline)) (female Cr1:CD1(ICR) mice; [3]) [%] | Test Time (female Cr1:CD1(ICR) mice; [4]) [s] | Baseline Time (female Cr1:CD1(ICR) mice; maximum 10 sec) [s] | causing hypothermia or analgesia ([2]; anandamide alone) | % MPE (percent of the maximum possible effect (test-baseline)/(10-baseline)) (female Cr1:CD1(ICR) mice; [5]) [%] | Test Time (female Cr1:CD1(ICR) mice; [5]) [s] | analgesic effect ([2]; anandamide administered along with OL-135)
1 | O=C(Oc1ccccc1)N1CCC(c2nc(C3=NOC4(CCCc5ccccc54)C3)cs2)CC1 (stereo not drawn) [Compound 52] | 7.54 | – | – | – | – | – | – | – | – | –
2 | O=C(Oc1ccccc1)N1CCC(c2nc(C3=NOC(c4ccccc4)C3)cs2)CC1 (stereo not drawn) [Compound 11, phenyl 4-[4-(4,5-dihydro-5-phenyl-3-isoxazolyl)-2-thiazolyl]-1-piperidinecarboxylate] | – | 100 | analgesic effects | 100.0 | 10.0 | 5.8 | – | – | – | –
3 | CCCCC/C=C\C/C=C\C/C=C\C/C=C\CCCC(=O)NCCO [Anandamide, reference compound] | – | – | – | – | – | 6.9 | largely ineffective | 20.3 | 6.7 | –
4 | O=C(Nc1nccs1)N1CCC(c2nc(C3=NOC(c4ccccc4)C3)cs2)CC1 (stereo not drawn) [Compound 49] | – | – | no analgesic effects | −4.0 | 6.4 | 7.5 | – | – | – | –
5 | O=C(Oc1ccccc1Cl)N1CCC(c2nc(C3=NOC(c4ccccc4)C3)cs2)CC1 (stereo not drawn) [Compound 61] | – | 90 | analgesic effects | 86.9 | 9.4 | 6.0 | – | – | – | –
6 | O=C(CCCCCCc1ccccc1)c1ncc(-c2ccccn2)o1 [OL-135, reference compound] | – | – | – | 61.5 | 7.6 | 4.1 | – | – | – | significantly elevated
7 | O=C(Nc1ccccc1)N1CCC(c2nc(C3=NOC(c4ccccc4)C3)cs2)CC1 (stereo not drawn) [Compound 1, 4-[4-(4,5-dihydro-5-phenyl-3-isoxazolyl)-2-thiazolyl]-N-phenyl-1-piperidinecarboxamide] | – | – | no analgesic effects | 20.2 | 5.0 | 3.5 | – | – | – | –
